# What was measured:
# SS cells = assay: Antisickling study with SS cells under hypoxia (2.5% O2); type: cell-based, human; conditions: 20% hematocrit, […] O2, 37 °C
# Protocol: For our previously studied compounds (e.g., INN-312, TD-7, SAJ-310, INN-298) that incorporate methoxyPy substitution to vanillin analogs, we observed a significant increase in functional and biological activity as a result of increased protein interactions[31],[33],[35],[36]. We therefore expected similar effects for VZHE-039, which we tested by following VZHE-039 activity (measured by Hb adduct formation, P50-shift and RBC sickling inhibition) using SS blood. Briefly, we incubated 0.5, 1, and 2 mM concentrations of VZHE-039 with whole blood suspensions from subjects with homozygous SCD (Hct of 20%) under hypoxic conditions (2.5% O2/97.5% N2) at 37 °C for 2 h for expected peak adduct. Aliquot blood samples were drawn into a fixative (2% glutaraldehyde solution), and sickling was assessed by microscopy[31],[33],[35],[36]. Aliquot samples were also subjected to cation-exchange HPLC analyses to assess the degree of Hb modification to the high-affinity adduct form (Hb adduct formation), as well as standard O2 equilibrium curves (OEC) to assess P50-shifts using hemox analyzer[31],[33],[35],[36]. […] The improved potency of Voxelotor has been attributed to reduced binding stoichiometry, i.e. while Voxelotor binds Hb at a 1:1 ratio, VZHE-039 binds Hb at a 2:1 ratio. […] This observation, as will be discussed later is likely due to a meaningful contribution from the novel O2-independent antisickling activity as result of the strong contact with the αF-helix.
# The effect of VZHE-039 on RBC sickling, Hb modification, and Hb oxygen equilibrium was studied utilizing samples from consented individuals with homozygous SCD following previous procedure. Briefly, blood suspended in Hemox buffer and supplemented with glucose and bovine serum albumin, to a final hematocrit of 20% were incubated under air in the absence or presence of 0.5 mM, 1 mM and 2 mM VZHE-039 at 37 °C for 1 h. This was followed by incubating the suspensions under hypoxic conditions (2.5% O2/97.5% N2) at 37 °C for 2 h. Aliquot samples were obtained and fixed with 2% glutaraldehyde solution without exposure to air, and then subjected to microscopic morphological analysis of bright field images (at × 40 magnification) of single layer cells on an Olympus BX40 microscope fitted with an Infinity 2 camera (Olympus), and the coupled Image Capture software. Leftover samples were washed in phosphate-buffer saline, and hemolyzed in hypotonic lysis buffer for subsequent Hb-modification and oxygen equilibrium analyses.
# HbA = biological target: T1, HbA (Homo sapiens, UniProt P69905); assay: In vitro time-dependent Hb oxygen equilibrium study using normal whole blood (tonometry); type: cell-based; conditions: 2 mM, Hct 30%, 37 °C, 1-24 h
# T1 construct: fresh normal adult whole blood (Hct of 30%); from tissue; host or cells: normal adult whole blood (red blood cells)
# From the text: The antisickling activity of aromatic aldehydes is dependent on Schiff-base interaction between the aldehyde moiety and the Hb αVal1 amines (Schiff-base adduct) and the increase in the protein affinity for oxygen[30]–[40]. […] To overcome this pharmacologic limitation, Tucaresol and Voxelotor, two potent antisickling agents utilized a ortho-hydroxyl moiety (relative to the aldehyde group) on the benzaldehyde ring to form intramolecular hydrogen-bond interaction with the aldehyde group to form hemiacetal-like moiety, which led to significant reduction in oxidative metabolism of the aldehyde[28],[50]. […] VZHE-039, however, incorporates this ortho-hydroxyl moiety on the benzene ring, which is expected to increase its oxidative metabolic stability. This was tested by incubating 2 mM of VZHE-039 (with vanillin and TD-7 as controls) with fresh normal adult whole blood (Hct of 30%) at 37 °C as a surrogate measure of oxidative metabolism. At defined time points (1, 4, 8, 12 and 24 h), aliquot samples were drawn, and subsequently analyzed for their P50-shifts relative to the initial P50 value, using three-point tonometry. In parallel, an untreated control sample was also assessed to control for any time-dependent, but drug-independent changes in P50 values. […] These findings confirm the importance of the ortho-hydroxyl group in aromatic aldehydes in preventing or reducing enzymatic metabolism of aldehyde in RBCs.
# Normal whole blood samples (hematocrit 30%) in the absence (control) or presence of 2 mM concentration VZHE-039 (solubilized in DMSO) were incubated at 37 °C for 24 h with shaking (at 140 rpm). At 1, 4, 8, 12 and 24 h time intervals, aliquots of this mixture were removed and then subjected to OEC analysis using tonometry as previously described. Vanillin and TD-7 were used as positive controls, while DMSO was tested as negative control. Briefly, the compound-treated blood samples were incubated in IL 237 tonometers (Instrumentation Laboratories, Inc. Lexington, MA) for approximately 10 min at 37 °C, and allowed to equilibrate at oxygen tensions 6, 20, and 40 mmHg. The samples were then aspirated into an ABL 700 Automated Blood Gas Analyzer (Radiometer) to determine the pH, partial pressure of CO2 (pCO2), partial pressure of oxygen (pO2), and Hb oxygen saturation values (SO2). The measured values of pO2 (mmHg) and SO2 at each pO2 value were then subjected to a non-linear regression analysis using the program Scientist (Micromath, Salt Lake City, UT) to estimate P50 as previously reported.
# T1 sequence (P69905 2-142 limits assumed): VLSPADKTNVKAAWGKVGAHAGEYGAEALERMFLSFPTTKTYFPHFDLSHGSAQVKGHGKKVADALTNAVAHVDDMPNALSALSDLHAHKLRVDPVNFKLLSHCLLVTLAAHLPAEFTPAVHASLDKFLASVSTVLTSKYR
# T1 sequence (P68871 2-147 partner limits assumed): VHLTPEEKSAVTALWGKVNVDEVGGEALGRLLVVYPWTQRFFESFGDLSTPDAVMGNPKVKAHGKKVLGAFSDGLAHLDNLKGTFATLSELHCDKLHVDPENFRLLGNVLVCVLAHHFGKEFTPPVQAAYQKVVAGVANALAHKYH
smiles,measurement,setting,value
"O=Cc1c(O)cccc1OCc1cccc(CO)n1 [VZHE-039, 2-((6-(Hydroxymethyl)pyridin-2-yl)methoxy)-6-hydroxybenzaldehyde]",Sickling Inhibition,SS cells; 0.5 mM,34.5 ± 2.4%
same,Sickling Inhibition,SS cells; 1 mM,63.7 ± 6.9%
same,Sickling Inhibition,SS cells; 2 mM,92.8 ± 5.5%
same,inhibition at 500 µM,"SS cells; Homo sapiens, 0.5 mM, read-out: Sickling Inhibition",35%
same,inhibition at 1000 µM,"SS cells; Homo sapiens, 1 mM, read-out: Sickling Inhibition",63%
same,inhibition at 2000 µM,"SS cells; Homo sapiens, 2 mM, read-out: Sickling Inhibition",93%
same,Time course of P50-shift (in words),HbA,sustained P50-shift throughout the entire 24-h experimental period
